Results reported in patent US20250281424A1 (New York Blood Center, Inc, priority 2020, published 2025).

Molecular target: T1, human PF4 (Homo sapiens, UniProt P02776)
T1 construct: PF4 is a 70 amino acid, lysine-rich 7.8 kDa platelet-specific protein; made in house; host or cells: Escherichia coli BL21DE3 pLysS (pT7-7) and/or Drosophila S2 cells
T1 sequence (P02776 32-101): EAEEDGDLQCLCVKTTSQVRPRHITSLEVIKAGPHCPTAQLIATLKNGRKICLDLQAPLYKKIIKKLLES
Assay: Inhibition of PF4 tetramer formation (BS3 cross-linking, SDS-PAGE)
Assay type: biochemical
Details: for inhibition at 5 µM: 5 μM inhibitor; for inhibition at 10 µM: 10 μM inhibitor (column A); for IC50: read-out: IC50 of PF4 tetramer formation inhibition; for inhibition at 1 µM: 1 μM inhibitor; for inhibition at 3 µM: 3 μM inhibitor (column A)
In short: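 Recombinant human wild-type PF4 (E. coli-expressed, heparin-purified), 10 μg/ml in PBS, incubated with compound 15 min at 37° C or 60 min at room temperature, then cross-linked with 0.2 mM BS3 for 30 min at room temperature. Reducing 12% SDS-PAGE; bands quantified as % tetramer, trimer, dimer, monomer versus compound-free control.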

[1] = read-out: % inhibition of PF4 tetramer formation at single concentration of inhibitor

Row | SMILES | inhibition at 5 µM [1] [%] | inhibition at 10 µM [1] [%] | IC50 [µM] | inhibition at 1 µM [1] [%] | inhibition at 3 µM [1] [%] | inhibition at 30 µM (30 μM inhibitor, read-out: % inhibition of PF4 tetramer formation at single concentration of inhibitor) [%]
1 | C[C@@H](C(=O)C1C(=O)c2ccc(S(=O)(=O)c3ccc4c(c3)C(=O)C(C(=O)[C@H](C)N(C)C(=O)OC(C)(C)C)C4=O)cc2C1=O)N(C)C(=O)OC(C)(C)C (stereo partly drawn) [Example 156, tert-butyl N-[(2S)-1-[5-({2-[(2S)-2-{[(tert-butoxy)carbonyl](methyl)amino}propanoyl]-1,3-dioxo-2,3-dihydro-1H-inden-5-yl}sulfonyl)-1,3-dioxo-2,3-dihydro-1H-inden-2-yl]-1-oxopropan-2-yl]-N-methylcarbamate] | 94 | 100 | 6.3 | – | – | –
2 | CC(C)(C)OC(=O)N1CC2(CC(C(=O)C3C(=O)c4ccc(C(=O)c5ccc6c(c5)C(=O)C(C(=O)C5CC7(C5)CN(C(=O)OC(C)(C)C)C7)C6=O)cc4C3=O)C2)C1 (centres unmarked) [Example 131, tert-butyl 6-[5-(2-{2-[(tert-butoxy)carbonyl]-2-azaspiro[3.3]heptane-6-carbonyl}-1,3-dioxo-2,3-dihydro-1H-indene-5-carbonyl)-1,3-dioxo-2,3-dihydro-1H-indene-2-carbonyl]-2-azaspiro[3.3]heptane-2-carboxylate] | 83 | 88 | 4.1 | – | – | –
3 | O=C(NC1CCS(=O)(=O)C1)C1C(=O)c2ccc(Oc3ccc4c(c3)C(=O)C(C(=O)NC3CCS(=O)(=O)C3)C4=O)cc2C1=O (centres unmarked) [Example 366, N-(1,1-dioxo-1λ^6-thiolan-3-yl)-5-({2-[(1,1-dioxo-1λ^6-thiolan-3-yl)carbamoyl]-1,3-dioxo-2,3-dihydro-1H-inden-5-yl}oxy)-1,3-dioxo-2,3-dihydro-1H-indene-2-carboxamide] | – | – | 0.55 | 41 | 60 | –
4 | O=C(c1ccc2c(c1)C(=O)C(C(=O)NCc1ccc(F)cc1)C2=O)c1ccc2c(c1)C(=O)C(C(=O)NCc1ccc(F)cc1)C2=O (centres unmarked) [Example 26, 5,5′-carbonylbis(1,3-dioxo-indan-2-carboxylic acid ((4-fluorophenyl)methyl)-amide)] | 59 | 66 | 3.61 | – | – | –
5 | O=C(NCc1ccccc1)C1C(=O)c2ccc(S(=O)(=O)c3ccc4c(c3)C(=O)C(C(=O)NCc3ccccc3)C4=O)cc2C1=O (centres unmarked) [Example 93, N-benzyl-5-{[2-(benzylcarbamoyl)-1,3-dioxo-2,3-dihydro-1H-inden-5-yl]sulfonyl}-1,3-dioxo-2,3-dihydro-1H-indene-2-carboxamide] | 70 | 75 | – | – | – | –
6 | N#CC1C(=O)c2ccc(C(=O)c3ccc4c(c3)C(=O)C(C#N)C4=O)cc2C1=O (centres unmarked) [Example 250, 5-(2-cyano-1,3-dioxo-2,3-dihydro-1H-indene-5-carbonyl)-1,3-dioxo-2,3-dihydro-1H-indene-2-carbonitrile] | – | – | 3 | 26 | 42 | –
7 | O=C(c1ccc2c(c1)C(=O)C(C(=O)NCc1ccco1)C2=O)c1ccc2c(c1)C(=O)C(C(=O)NCc1ccco1)C2=O (centres unmarked) [Example 19, 5,5′-carbonylbis(1,3-dioxo-indan-2-carboxylic acid (furan-2-ylmethyl)-amide)] | 29 | 56 | – | – | – | –
8 | CCOC(=O)NC(=O)C1C(=O)c2ccc(C(=O)c3ccc4c(c3)C(=O)C(C(=O)NC(=O)OCC)C4=O)cc2C1=O (centres unmarked) [Example 16, 5,5′-carbonylbis((1,3-dioxo-indane-2-carbonyl)-carbamic acid ethyl ester)] | – | – | 20 | – | – | 78
9 | O=C(c1ccc2c(c1)C(=O)C(C(=O)Nc1ccc(Cl)cc1)C2=O)c1ccc2c(c1)C(=O)C(C(=O)Nc1ccc(Cl)cc1)C2=O (centres unmarked) [Example 78, N-(4-chlorophenyl)-5-{2-[(4-chlorophenyl)carbamoyl]-1,3-dioxo-2,3-dihydro-1H-indene-5-carbonyl}-1,3-dioxo-2,3-dihydro-1H-indene-2-carboxamide] | – | – | 1.4 | – | – | –
10 | COCCCNC(=O)C1C(=O)c2ccc(S(=O)(=O)c3ccc4c(c3)C(=O)C(C(=O)NCCCOC)C4=O)cc2C1=O (centres unmarked) [Example 90, N-(3-methoxypropyl)-5-({2-[(3-methoxypropyl)carbamoyl]-1,3-dioxo-2,3-dihydro-1H-inden-5-yl}sulfonyl)-1,3-dioxo-2,3-dihydro-1H-indene-2-carboxamide] | – | – | 4.2 | – | – | –
11 | CC(C)(C)OC(=O)NCCC(=O)C1C(=O)c2ccc(Oc3ccc4c(c3)C(=O)C(C(=O)CCNC(=O)OC(C)(C)C)C4=O)cc2C1=O (centres unmarked) [Example 267, tert-butyl N-[3-(5-{[2-(3-{[(tert-butoxy)carbonyl]amino}propanoyl)-1,3-dioxo-2,3-dihydro-1H-inden-5-yl]oxy}-1,3-dioxo-2,3-dihydro-1H-inden-2-yl)-3-oxopropyl]carbamate] | – | 100 | – | – | – | –
12 | O=C(c1ccc2c(c1)C(=O)C(C(=O)CC1CCCC1)C2=O)c1ccc2c(c1)C(=O)C(C(=O)CC1CCCC1)C2=O (centres unmarked) [Example 141, 2-(2-cyclopentylacetyl)-5-[2-(2-cyclopentylacetyl)-1,3-dioxo-2,3-dihydro-1H-indene-5-carbonyl]-2,3-dihydro-1H-indene-1,3-dione] | 38 | 68 | – | – | – | –
13 | CCNC(=O)C1C(=O)c2ccc(Oc3ccc4c(c3)C(=O)C(C(=O)NCC)C4=O)cc2C1=O (centres unmarked) [Example 334, N-ethyl-5-{[2-(ethylcarbamoyl)-1,3-dioxo-2,3-dihydro-1H-inden-5-yl]oxy}-1,3-dioxo-2,3-dihydro-1H-indene-2-carboxamide] | – | – | – | 27 | 40 | –
14 | C[C@H](NC(=O)OC(C)(C)C)C(=O)C1C(=O)c2ccc(S(=O)(=O)c3ccc4c(c3)C(=O)C(C(=O)[C@H](C)NC(=O)OC(C)(C)C)C4=O)cc2C1=O (stereo partly drawn) [Example 180, tert-butyl N-[(2S)-1-[5-({2-[(2S)-2-{[(tert-butoxy)carbonyl]amino}propanoyl]-1,3-dioxo-2,3-dihydro-1H-inden-5-yl}sulfonyl)-1,3-dioxo-2,3-dihydro-1H-inden-2-yl]-1-oxopropan-2-yl]carbamate] | 73 | 90 | ~6 | – | – | –
15 | CSCCC(=O)C1C(=O)c2ccc(Oc3ccc4c(c3)C(=O)C(C(=O)CCSC)C4=O)cc2C1=O (centres unmarked) [Example 276, 2-[3-(methylsulfanyl)propanoyl]-5-({2-[3-(methylsulfanyl)propanoyl]-1,3-dioxo-2,3-dihydro-1H-inden-5-yl}oxy)-2,3-dihydro-1H-indene-1,3-dione] | – | – | 3 | 12 | 7 | –
16 | O=C(NC1CC1)C1C(=O)c2ccc(-c3ccc4c(c3)C(=O)C(C(=O)NC3CC3)C4=O)cc2C1=O (centres unmarked) [Example 110, (2Z,2′Z)-2,2′-bis[(cyclopropylamino)(hydroxyl)methylidene]-1H,1′H,2H,2′H,3H,3′H-[5,5′-biindene]-1,1′,3,3′-tetrone] | 84 | 87 | ~4 | – | – | –
17 | COC(=O)c1ccccc1NC(=O)C1C(=O)c2ccc(C(=O)c3ccc4c(c3)C(=O)C(C(=O)Nc3ccccc3C(=O)OC)C4=O)cc2C1=O (centres unmarked) [Example 99, methyl 2-[5-(2-{[2-(methoxycarbonyl)phenyl]carbamoyl}-1,3-dioxo-2,3-dihydro-1H-indene-5-carbonyl)-1,3-dioxo-2,3-dihydro-1H-indene-2-amido]benzoate] | 44 | 100 | 13 | – | – | –
18 | O=C(c1ccc2c(c1)C(=O)C(C(=O)Nc1ccc(Cl)cc1Cl)C2=O)c1ccc2c(c1)C(=O)C(C(=O)Nc1ccc(Cl)cc1Cl)C2=O (centres unmarked) [Example 80, N-(2,4-dichlorophenyl)-5-{2-[(2,4-dichlorophenyl)carbamoyl]-1,3-dioxo-2,3-dihydro-1H-indene-5-carbonyl}-1,3-dioxo-2,3-dihydro-1H-indene-2-carboxamide] | 90 | 90 | – | – | – | –
19 | C[C@H]1C[C@@H](C(=O)C2C(=O)c3ccc(S(=O)(=O)c4ccc5c(c4)C(=O)C(C(=O)[C@@H]4C[C@H](C)CN4C(=O)OC(C)(C)C)C5=O)cc3C2=O)N(C(=O)OC(C)(C)C)C1 (stereo partly drawn) [Example 224, tert-butyl (2S,4S)-2-[5-({2-[(2S,4S)-1-[(tert-butoxy)carbonyl]-4-methylpyrrolidine-2-carbonyl]-1,3-dioxo-2,3-dihydro-1H-inden-5-yl}sulfonyl)-1,3-dioxo-2,3-dihydro-1H-indene-2-carbonyl]-4-methylpyrrolidine-1-carboxylate] | 100 | 95 | 2.2 | – | – | –
20 | CO[C@@H](C(=O)C1C(=O)c2ccc(S(=O)(=O)c3ccc4c(c3)C(=O)C(C(=O)[C@H](OC)c3ccccc3)C4=O)cc2C1=O)c1ccccc1 (stereo partly drawn) [Example 136, 2-[(2R)-2-methoxy-2-phenylacetyl]-5-({2-[(2R)-2-methoxy-2-phenylacetyl]-1,3-dioxo-2,3-dihydro-1H-inden-5-yl}sulfonyl)-2,3-dihydro-1H-indene-1,3-dione] | 75 | 86 | 18 | – | – | –
21 | COCCOCCN(CC(=O)C1C(=O)c2ccc(S(=O)(=O)c3ccc4c(c3)C(=O)C(C(=O)CN(CCOCCOC)C(=O)OC(C)(C)C)C4=O)cc2C1=O)C(=O)OC(C)(C)C (centres unmarked) [Example 392, tert-butyl N-{2-[5-({2-[2-(11,11-dimethyl-9-oxo-2,5,10-trioxa-8-azadodecan-8-yl)acetyl]-1,3-dioxo-2,3-dihydro-1H-inden-5-yl}sulfonyl)-1,3-dioxo-2,3-dihydro-1H-inden-2-yl]-2-oxoethyl}-N-[2-(2-methoxyethoxy)ethyl]carbamate] | – | – | – | 1 | 1 | –
